Data as given in patent US6458767B1, “Use of peptides inhibitory for thrombospondin dependent TGF-β activation in the treatment of kidney disease” (The UAB Research Foundation, priority 1994, dated 2002).

Tests used:
TSP1 null mice = details: literature; cited from earlier work
TGF-β = test: Glomerular secretion of active TGF-β (NRK-bioassay of supernatants of isolated glomeruli) in anti-Thy1 rats; format: in vivo, rat
Excerpt: (§1) Experimental design. Experimental mesangial proliferative glomerulonephritis was induced using the monoclonal mouse anti-Thy1 antibody OX-7. Peptides were continuously infused intravenously (i.v.) via jugular vein using osmotic minipumps starting sixteen hours after disease induction. The effects of the hexapeptide AAWSHW (SEQ ID NO:22) (that interferes with the TSP1-mature TGF-β interaction) or the LSKL-peptide (SEQ ID NO:21) (that blocks the TSP1-LAP interaction) were compared to a control peptide (SLLK) in the anti-Thy1 model. Tissues from different time points (days three, five, eight) of this experiment were analyzed in regard to mesangiolysis, macrophage-influx, MC-proliferation, MC-activation, microaneurysm and matrix formation, GEN proliferation, TSP1, TGF-β1 and 2, as well as TGF-βRI and RII. Functional parameters such as blood pressure, proteinuria, and creatinine clearance were also determined. On day eight, glomerular secretion of active TGF-β was determined in individual animals by incubating isolated glomeruli for twenty-four hours in DMEM and measuring TGF-β activity in glomerular supernatants using the NRK-bioassay.
(§2) Animal model Experimental mesangial proliferative glomerulonephritis (anti-Thy1 model) was induced in Sprague Dawley rats (180-200 g; Charles River, Sulzfeld, Germany) by a single injection of 1 mg/kg of the mouse monoclonal anti-Thy1 antibody OX-7 (European Collection of Animal Cell Culture, Salisbury, England). In this animal model, complete anti-Thy1 antibody binding occurs within an hour (Johnson et al. (1991) Am. J. Pathol. 138 (2), 313-21). To avoid potential interference of the LAP-peptides with anti-Thy1 antibody binding and subsequent mesangiolysis, the peptide treatment was started sixteen hours after disease induction, when binding of the anti-Thy1 antibody to the mesangium and subsequent mesangiolysis had already occurred. The peptides used in this study were synthesized, purified, and analyzed as described elsewhere (Crawford et al. (1998) Cell 93, 1159-1170).
Renal biopsies as described previously (Hugo et al. (1997) J. Clin. Invest. 100, 786-794) were performed on days three and five, and the experiment was finished on day eight. To determine DNA incorporation into proliferating cells, each animal was injected intravenously with BrdU (50 mg/kg bw) ninety minutes before the second survival biopsy was taken on day five (peak of MC proliferation). Renal biopsies were fixed in methyl Carnoy's, 10% formalin and/or OCT and snap frozen. A twenty-four hour urine collection for measurement of protein and creatinine was done from day seven to eight, when maximal proteinuria occurs in this model (unpublished observation). Blood pressure measurements were done twice before and twice after disease induction. In renal biopsies, the frequency of glomerular microaneurysms, the number of infiltrating macrophages, the number of proliferating MC, the expression of the contractile protein α-sm actin as a marker of MC-activation, and the expression of TGF-β1, TGF-β2, TGF-βRI, TGF-βRII, TSP1, as well as of extracellular matrix proteins such as collagen I, collagen IV and fibronectin were determined. For TGF-β activity measurements in individual animals on day eight, glomeruli were isolated by differential sieving (Johnson et al. (1991) Am. J. Pathol. 138 (2), 313-21) and counted using five aliquots. Glomerular isolates were discarded if purity was less than 95%. 8000 glomeruli/ml were incubated in DMEM at 37° C. […]

[1] = tested on: rats with anti-Thy1 disease; test: Glomerular extracellular matrix formation (Masson's Trichrome, collagen I, collagen IV, fibronectin stains) in the anti-Thy1 model; format: in vivo, rat
Excerpt: as §1, §2
(§3) Renal biopsies as described previously (Hugo et al. (1997) J. Clin. Invest. 100, 786-794) were performed on days three and five, and the experiment was finished on day eight. To determine DNA incorporation into proliferating cells, each animal was injected intravenously with BrdU (50 mg/kg bw) ninety minutes before the second survival biopsy was taken on day five (peak of MC proliferation). Renal biopsies were fixed in methyl Carnoy's, 10% formalin and/or OCT and snap frozen. A twenty-four hour urine collection for measurement of protein and creatinine was done from day seven to eight, when maximal proteinuria occurs in this model (unpublished observation). Blood pressure measurements were done twice before and twice after disease induction. In renal biopsies, the frequency of glomerular microaneurysms, the number of infiltrating macrophages, the number of proliferating MC, the expression of the contractile protein α-sm actin as a marker of MC-activation, and the expression of TGF-β1, TGF-β2, TGF-βRI, TGF-βRII, TSP1, as well as of extracellular matrix proteins such as collagen I, collagen IV and fibronectin were determined. For TGF-β activity measurements in individual animals on day eight, glomeruli were isolated by differential sieving (Johnson et al. (1991) Am. J. Pathol. 138 (2), 313-21) and counted using five aliquots. Glomerular isolates were discarded if purity was less than 95%. 8000 glomeruli/ml were incubated in DMEM at 37° C. After a twenty-four hour incubation period, glomerular supernatants were stored by −70° C. until TGF-β activity measurements were done.
(§4) Peptide infusion. All peptides (at a concentration of 3.5 mg/ml) were continuously infused for seven days via a catheter in the right jugular vein using osmotic minipumps (Alzet Corp./Charles River, Sulzfeld, Germany). […]

[2] = tested on: rats with anti-Thy1 disease; test: Glomerular immunostaining score for TGF-β1, TGF-β2, TGF-βRI, TGF-βRII and TSP1 in the anti-Thy1 model; format: in vivo, rat
Excerpt: as §1, §2, §3, §4

[3] = tested on: rats with anti-Thy1 disease; test: Glomerular MC-proliferation, MC-activation and macrophage influx in the anti-Thy1 model; format: in vivo, rat
Excerpt: as §1, §2, §3, §4

[4] = tested on: rats with anti-Thy1 disease; test: Mesangiolysis, microaneurysm formation and GEN-proliferation in the anti-Thy1 model; format: in vivo, rat
Excerpt: as §1, §2, §3, §4

[5] = tested on: rats with anti-Thy1 disease; test: Functional parameters (proteinuria, creatinine clearance, blood urea nitrogen, systolic blood pressure) in the anti-Thy1 model; format: in vivo, rat
Excerpt: as §1, §2, §3, §4

[6] = tested on: activation of TGF-β by TSP1; details: background, literature; cited from earlier work

KRFK: TGF-β activating peptide, KRFK amino acid sequence of the TSP1 molecule (listed as Homo sapiens)
histological changes in TSP1 null mice (TSP1 null mice): reverted toward wild type

Leu-Ser-Lys-Leu (LSKL; listed as Homo sapiens)
Active TGF-β (colonies > 62 um) (TGF-β; day 8 glomeruli, 24 h supernatant, NRK-bioassay, continuous i.v. peptide infusion): 154 ± 50 colonies > 62 um | glomerular secretion of active TGF-β compared to control peptide (SLLK) treated rats (TGF-β; day eight glomeruli, p<0.01): markedly reduced | Matrix Collagen 1 (score 0-4) ([1]; day 3): 0.1 ± 0.1 score 0-4 | Matrix Collagen IV (score 0-4) ([1]; day 3): 1.0 ± 0.2 score 0-4 | Matrix Fibronectin (score 0-4) ([1]; day 3): 1.2 ± 0.4 score 0-4 | Matrix Trichrome (score 0-3) ([1]; day 3): 0.4 ± 0.2 score 0-3 | Matrix Collagen 1 (score 0-4) ([1]; day 5): 0.7 ± 0.4 score 0-4 | Matrix Collagen IV (score 0-4) ([1]; day 5): 1.9 ± 0.3 score 0-4 | Matrix Fibronectin (score 0-4) ([1]; day 5): 1.9 ± 0.6 score 0-4 | Matrix Trichrome (score 0-3) ([1]; day 5): 0.7 ± 0.2 score 0-3 | Matrix Collagen 1 (score 0-4) ([1]; day 8): 0.8 ± 0.5 score 0-4 | Matrix Collagen IV (score 0-4) ([1]; day 8): 1.2 ± 0.4 score 0-4 | Matrix Fibronectin (score 0-4) ([1]; day 8): 0.9 ± 0.6 score 0-4 | Matrix Trichrome (score 0-3) ([1]; day 8): 1.2 ± 0.3 score 0-3 | extracellular matrix formation as determined by Trichrome staining ([1]; day eight, in words): markedly suppressed | glomerular accumulation of collagen I, collagen IV and fibronectin by immunohistochemistry ([1]; time course of anti-Thy1 disease, in words): reduced glomerular accumulation of all three extracellular matrix proteins | TGF-β1 (score 0-4) ([2]; day 3): 0.1 ± 0.1 score 0-4 | TGF-β2 (score 0-4) ([2]; day 3): 0.2 ± 0.1 score 0-4 | TGF-βRI (score 0-4) ([2]; day 3): 0.2 ± 0.2 score 0-4 | TGF-βRII (score 0-4) ([2]; day 3): 0.2 ± 0.1 score 0-4 | TSP I (score 0-4) ([2]; day 3): 0.3 ± 0.2 score 0-4 | TGF-β1 (score 0-4) ([2]; day 5): 1.8 ± 0.6 score 0-4 | TGF-β2 (score 0-4) ([2]; day 5): 1.2 ± 0.6 score 0-4 | TGF-βRI (score 0-4) ([2]; day 5): 1.4 ± 0.3 score 0-4 | TGF-βRII (score 0-4) ([2]; day 5): 1.3 ± 0.3 score 0-4 | TSP I (score 0-4) ([2]; day 5): 1.4 ± 0.6 score 0-4 | TGF-β1 (score 0-4) ([2]; day 8): 1.7 ± 0.6 score 0-4 | TGF-β2 (score 0-4) ([2]; day 8): 0.6 ± 0.6 score 0-4 | TGF-βRI (score 0-4) ([2]; day 8): 1.4 ± 0.4 score 0-4 | TGF-βRII (score 0-4) ([2]; day 8): 0.9 ± 0.6 score 0-4 | TSP I (score 0-4) ([2]; day 8): 0.5 ± 0.3 score 0-4 | MC-activation α-sm actin (score 0-4) ([3]; day 3): 0.6 ± 0.3 score 0-4 | MC-proliferation (OX-7 + /PCNA + cells/glomerulus) ([3]; day 3): 3.3 ± 0.6 cells/glomerulus | Macrophages (ED-1 + cells/glomerulus) ([3]; day 3): 4.3 ± 2.0 cells/glomerulus | MC-activation α-sm actin (score 0-4) ([3]; day 5): 2.5 ± 0.4 score 0-4 | MC-proliferation (OX-7 + /BrdU + cells/glomerulus) ([3]; day 5): 3.9 ± 0.6 cells/glomerulus | MC-proliferation (OX-7 + /PCNA + cells/glomerulus) ([3]; day 5): 7.9 ± 1.0 cells/glomerulus | Macrophages (ED-1 + cells/glomerulus) ([3]; day 5): 1.0 ± 0.6 cells/glomerulus | MC-activation α-sm actin (score 0-4) ([3]; day 8): 2.4 ± 0.5 score 0-4 | MC-proliferation (OX-7 + /PCNA + cells/glomerulus) ([3]; day 8): 4.6 ± 0.5 cells/glomerulus | Macrophages (ED-1 + cells/glomerulus) ([3]; day 8): 0.7 ± 0.5 cells/glomerulus | MC activation (de novo expression of α-sm-actin) ([3]; in words): did not significantly alter | Glomerular Microaneurysm (in percent) ([4]; day 3): 16.7 ± 10.0% | Glomerular Microaneurysm (in percent) ([4]; day 5): 13.8 ± 19.9% | Glomerular Microaneurysm (in percent) ([4]; day 8): 2.2 ± 2.7% | Glomerular GEN-proliferation (double staining for RECA-1 and PCNA) ([4]; day three): 2.0±0.5 | mesangiolysis scores ([4]; day three, scale 0-IV): 2.56±0.3 | Proteinuria (mg/24 hours) ([5]; day 8 (urine collection day seven to eight)): 24 ± 20 mg/24 hours | twenty-four hour proteinuria ([5]; days seven to eight): 24±20 mg/twenty-four hours | Blood urea nitrogen ([5]; rat, in vivo): 33.2 ± 9.4 mg/dL | block of activation of TGF-β by TSP1 [6]: able to block activation of TGF-β by TSP1
